Values of other authors in patent US5070187A, “Pharmacologically effective antagonists of arginine-vasopressin” (priority 1989, dated 1991).

Settings: in vivo

Substance: [8-arginine]-vasopressin
- urinary clearance relative to that occurring elsewhere in the body: less than 5%
